Assay results taken from patent publication US20220402948A1, “EGFR INHIBITOR, COMPOSITION AND PREPARATION METHOD THEREFOR” (BETTA PHARMACEUTICALS CO., LTD., priority 2019, published 2022).

Legend:
[1] = biological target: EGFRΔ19del/T790M/C797S (Homo sapiens, UniProt P00533, T790M/C797S, form not given); test: EGFR Δ19del/T790M/C797S kinase test (mobility variation analysis, Caliper EZ Reader); format: biochemical; conditions: kinase enzymatic activity, Table 1
In short: (§1)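 Read-out is substrate-to-product conversion by mobility shift, stopped after incubation at room temperature with ATP and substrate, following a 10-minute room-temperature compound–enzyme pre-incubation. IC50 obtained by four-parameter variable-slope fitting of inhibition normalized between enzyme-free and uninhibited controls.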

[2] = biological target: EGFR WT (Homo sapiens, UniProt P00533); test: EGFR WT kinase test (mobility variation analysis, Caliper EZ Reader); format: biochemical; conditions: kinase enzymatic activity, Table 1
In short: as §1

[3] = biological target: IGF1R (Homo sapiens, UniProt P08069); test: IGF1R kinase test (mobility variation analysis, Caliper EZ Reader); format: biochemical; conditions: kinase enzymatic activity, Table 1; read-out: EGFR IGF1R IC50
In short: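 Mobility-shift readout of substrate conversion, normalised to positive (no compound) and negative (no kinase) controls, gives % inhibition and IC50 by four-parameter fit. Compounds, 3-fold dilutions over 10 concentrations starting at 3000 nM, preincubated 10 min with kinase before ATP/substrate start; room temperature.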

[4] = biological target: Ba/F3 cells with EGFR Δ19del/T790M/C797S mutation gene stably overexpressed (Homo sapiens, UniProt P00533, T790M/C797S, cells depend on it, form not given); test: Ba/F3-Δ19del/T790M/C797S cell proliferation assay (CellTiter Glo, 72 hours); format: cell-based; conditions: Table 2, read-out: EGFR Δ19del/T790M/C797S IC50
In short: (§2)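 Ba/F3 cells stably overexpressing wild-type EGFR or EGFR Δ19del/T790M/C797S were seeded at 2000 cells/well and incubated 72 h with compound. Viability was read by CellTiter-Glo luminescence, and IC50 came from a four-parameter logistic fit of signal against log concentration.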

[5] = biological target: Ba/F3-EGFR wild-type cell line (Homo sapiens, UniProt P00533); test: Ba/F3-EGFR wild-type cell proliferation assay (CellTiter Glo, 72 hours); format: cell-based; conditions: Table 2, read-out: EGFR WT IC50
In short: as §2

[6] = test system: A431; test: A431 cell proliferation assay (CellTiter Glo, 72 hours); format: cell-based; conditions: Homo sapiens, A-431, 72 h, cell proliferation, A431, 72 hours, Table 2; read-out: A431 IC50
In short: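 Luminescence (CellTiter-Glo) after 72 h treatment gives viability, fitted by nonlinear regression to yield IC50. Cells seeded at 2000 per well; nine 3-fold concentrations from 1000 nM, DMSO final 0.1% (0.5% for certain compounds).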

Chain of EGFR WT (P00533 25-1210): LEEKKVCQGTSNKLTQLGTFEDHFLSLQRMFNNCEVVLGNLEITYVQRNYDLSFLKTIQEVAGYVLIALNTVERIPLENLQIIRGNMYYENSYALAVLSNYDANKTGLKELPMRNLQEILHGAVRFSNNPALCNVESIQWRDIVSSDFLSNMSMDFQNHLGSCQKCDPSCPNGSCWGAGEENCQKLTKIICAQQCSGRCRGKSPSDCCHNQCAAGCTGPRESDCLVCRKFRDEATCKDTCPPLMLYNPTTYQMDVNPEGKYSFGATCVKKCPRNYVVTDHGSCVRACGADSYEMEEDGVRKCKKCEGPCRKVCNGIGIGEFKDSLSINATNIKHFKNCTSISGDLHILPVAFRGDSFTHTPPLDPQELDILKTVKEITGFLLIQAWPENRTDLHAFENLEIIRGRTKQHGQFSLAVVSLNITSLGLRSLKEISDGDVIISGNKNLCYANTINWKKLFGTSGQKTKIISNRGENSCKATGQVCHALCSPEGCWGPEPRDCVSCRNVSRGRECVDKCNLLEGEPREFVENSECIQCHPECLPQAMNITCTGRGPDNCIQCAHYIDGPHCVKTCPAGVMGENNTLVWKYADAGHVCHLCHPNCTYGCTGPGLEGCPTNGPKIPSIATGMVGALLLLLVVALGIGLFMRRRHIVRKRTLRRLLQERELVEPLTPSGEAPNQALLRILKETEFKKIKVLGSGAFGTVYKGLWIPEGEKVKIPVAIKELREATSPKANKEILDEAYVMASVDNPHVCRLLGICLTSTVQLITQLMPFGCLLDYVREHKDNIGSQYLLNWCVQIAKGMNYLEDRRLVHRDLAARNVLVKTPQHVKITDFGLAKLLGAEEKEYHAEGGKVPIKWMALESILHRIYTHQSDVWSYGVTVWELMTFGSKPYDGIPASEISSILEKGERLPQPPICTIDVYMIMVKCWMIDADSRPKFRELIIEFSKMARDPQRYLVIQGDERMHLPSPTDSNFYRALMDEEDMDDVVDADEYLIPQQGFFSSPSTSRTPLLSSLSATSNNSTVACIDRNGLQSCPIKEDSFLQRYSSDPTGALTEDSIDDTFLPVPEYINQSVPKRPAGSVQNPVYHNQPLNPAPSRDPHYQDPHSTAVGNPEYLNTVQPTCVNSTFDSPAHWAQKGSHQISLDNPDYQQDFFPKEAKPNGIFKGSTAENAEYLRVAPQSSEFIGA
Chain of IGF1R (P08069 31-1367, species assumed): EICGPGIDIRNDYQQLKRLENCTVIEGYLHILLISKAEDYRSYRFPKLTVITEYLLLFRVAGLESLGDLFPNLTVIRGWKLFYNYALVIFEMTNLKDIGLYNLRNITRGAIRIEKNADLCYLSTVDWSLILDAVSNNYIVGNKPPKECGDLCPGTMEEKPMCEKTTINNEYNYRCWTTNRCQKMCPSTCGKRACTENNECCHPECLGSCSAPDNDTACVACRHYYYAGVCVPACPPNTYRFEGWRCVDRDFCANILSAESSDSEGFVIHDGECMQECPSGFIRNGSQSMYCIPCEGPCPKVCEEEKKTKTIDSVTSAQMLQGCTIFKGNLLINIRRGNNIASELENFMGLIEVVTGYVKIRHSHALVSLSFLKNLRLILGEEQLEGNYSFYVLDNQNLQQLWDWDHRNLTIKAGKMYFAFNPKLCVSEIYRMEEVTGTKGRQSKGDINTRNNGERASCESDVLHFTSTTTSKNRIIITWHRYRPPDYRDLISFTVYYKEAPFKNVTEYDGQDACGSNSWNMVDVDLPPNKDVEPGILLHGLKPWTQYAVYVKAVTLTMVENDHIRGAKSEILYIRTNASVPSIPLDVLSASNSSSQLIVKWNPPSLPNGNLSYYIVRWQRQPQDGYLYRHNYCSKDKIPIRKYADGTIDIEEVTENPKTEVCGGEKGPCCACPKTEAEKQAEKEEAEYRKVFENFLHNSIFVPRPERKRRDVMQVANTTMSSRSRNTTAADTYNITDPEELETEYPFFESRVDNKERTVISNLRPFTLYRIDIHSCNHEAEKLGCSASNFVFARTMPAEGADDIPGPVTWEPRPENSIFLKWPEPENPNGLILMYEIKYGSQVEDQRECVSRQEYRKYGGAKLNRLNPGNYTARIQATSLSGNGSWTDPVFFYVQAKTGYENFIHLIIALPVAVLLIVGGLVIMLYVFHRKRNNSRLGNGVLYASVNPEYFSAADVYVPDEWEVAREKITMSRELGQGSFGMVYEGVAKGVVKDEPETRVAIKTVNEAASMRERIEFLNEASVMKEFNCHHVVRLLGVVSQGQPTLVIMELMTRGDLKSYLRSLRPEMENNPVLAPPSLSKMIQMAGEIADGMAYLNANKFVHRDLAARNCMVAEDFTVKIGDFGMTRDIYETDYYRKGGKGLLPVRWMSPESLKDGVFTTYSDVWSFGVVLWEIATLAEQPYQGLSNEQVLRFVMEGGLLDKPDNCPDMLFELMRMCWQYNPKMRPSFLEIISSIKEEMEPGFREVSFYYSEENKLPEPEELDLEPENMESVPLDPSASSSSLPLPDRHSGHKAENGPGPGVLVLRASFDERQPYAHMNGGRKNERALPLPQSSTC
Chain of Ba/F3-EGFR wild-type cell line (P00533 whole entry, change not shown): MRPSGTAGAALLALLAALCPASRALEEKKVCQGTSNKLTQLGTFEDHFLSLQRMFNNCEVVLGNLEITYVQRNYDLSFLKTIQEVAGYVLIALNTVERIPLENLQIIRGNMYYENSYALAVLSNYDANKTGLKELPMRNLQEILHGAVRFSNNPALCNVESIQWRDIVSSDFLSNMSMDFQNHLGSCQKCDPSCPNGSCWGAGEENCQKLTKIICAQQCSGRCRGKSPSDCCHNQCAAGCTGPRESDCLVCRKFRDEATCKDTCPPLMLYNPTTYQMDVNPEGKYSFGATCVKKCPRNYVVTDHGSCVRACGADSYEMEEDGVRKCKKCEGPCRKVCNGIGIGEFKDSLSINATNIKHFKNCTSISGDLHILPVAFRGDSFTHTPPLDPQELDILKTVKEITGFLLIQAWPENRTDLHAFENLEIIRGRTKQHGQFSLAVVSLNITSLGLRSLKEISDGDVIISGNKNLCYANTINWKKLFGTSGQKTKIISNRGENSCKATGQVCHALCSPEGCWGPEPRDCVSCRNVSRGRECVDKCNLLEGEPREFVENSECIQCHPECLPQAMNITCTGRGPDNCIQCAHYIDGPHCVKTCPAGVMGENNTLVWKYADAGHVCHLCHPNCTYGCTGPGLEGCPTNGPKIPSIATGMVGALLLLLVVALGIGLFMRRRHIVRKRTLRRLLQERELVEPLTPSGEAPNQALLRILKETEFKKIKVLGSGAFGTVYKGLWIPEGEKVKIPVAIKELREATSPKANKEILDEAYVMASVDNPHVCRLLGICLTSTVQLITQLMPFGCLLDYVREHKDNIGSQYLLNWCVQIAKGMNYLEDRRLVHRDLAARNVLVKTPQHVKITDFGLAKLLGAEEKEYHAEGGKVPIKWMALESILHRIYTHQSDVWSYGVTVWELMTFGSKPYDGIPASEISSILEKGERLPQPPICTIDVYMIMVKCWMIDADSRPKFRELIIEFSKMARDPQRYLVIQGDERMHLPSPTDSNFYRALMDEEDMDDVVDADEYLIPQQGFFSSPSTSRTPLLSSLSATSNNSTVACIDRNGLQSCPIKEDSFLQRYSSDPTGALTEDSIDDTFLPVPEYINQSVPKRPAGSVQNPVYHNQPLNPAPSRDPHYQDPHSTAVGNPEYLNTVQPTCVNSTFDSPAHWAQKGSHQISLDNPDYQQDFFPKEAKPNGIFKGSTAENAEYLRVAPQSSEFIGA
Chain of EGFRΔ19del/T790M/C797S (P00533 with tags, fused parts or gaps DEL746-750/T790M/C797S, form open): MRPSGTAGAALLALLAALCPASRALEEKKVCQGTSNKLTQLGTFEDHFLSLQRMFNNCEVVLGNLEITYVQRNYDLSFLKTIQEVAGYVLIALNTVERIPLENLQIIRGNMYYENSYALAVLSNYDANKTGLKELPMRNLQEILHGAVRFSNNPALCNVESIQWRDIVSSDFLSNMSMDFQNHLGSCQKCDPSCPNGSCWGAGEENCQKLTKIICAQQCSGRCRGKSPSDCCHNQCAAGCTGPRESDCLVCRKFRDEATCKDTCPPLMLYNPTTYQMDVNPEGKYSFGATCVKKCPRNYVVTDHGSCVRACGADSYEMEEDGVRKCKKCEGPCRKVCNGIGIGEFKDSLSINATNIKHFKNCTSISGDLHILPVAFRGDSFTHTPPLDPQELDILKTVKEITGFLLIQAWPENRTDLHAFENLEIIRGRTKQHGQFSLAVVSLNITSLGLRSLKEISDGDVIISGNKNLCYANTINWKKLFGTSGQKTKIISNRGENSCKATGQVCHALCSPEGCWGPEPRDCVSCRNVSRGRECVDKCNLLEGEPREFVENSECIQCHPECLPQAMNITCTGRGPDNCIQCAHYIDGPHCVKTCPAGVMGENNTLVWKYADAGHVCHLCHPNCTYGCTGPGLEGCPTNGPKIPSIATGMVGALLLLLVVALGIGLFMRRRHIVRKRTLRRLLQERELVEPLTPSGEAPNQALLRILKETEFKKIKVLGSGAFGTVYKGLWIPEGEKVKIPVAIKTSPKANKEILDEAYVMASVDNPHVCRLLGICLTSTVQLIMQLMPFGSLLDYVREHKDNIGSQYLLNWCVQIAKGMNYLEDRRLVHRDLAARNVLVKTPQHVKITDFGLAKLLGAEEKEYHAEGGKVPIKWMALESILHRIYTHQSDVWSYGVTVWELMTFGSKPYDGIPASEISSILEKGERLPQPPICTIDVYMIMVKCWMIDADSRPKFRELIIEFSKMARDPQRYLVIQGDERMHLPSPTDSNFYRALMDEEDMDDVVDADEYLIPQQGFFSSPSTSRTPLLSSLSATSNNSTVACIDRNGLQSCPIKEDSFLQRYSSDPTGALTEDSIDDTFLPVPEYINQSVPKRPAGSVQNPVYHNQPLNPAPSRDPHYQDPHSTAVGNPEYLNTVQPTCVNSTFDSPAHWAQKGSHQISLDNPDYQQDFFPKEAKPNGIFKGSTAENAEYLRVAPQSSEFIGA

| SMILES | IC50 [1] [nM] | IC50 [2] [nM] | IC50 [3] [nM] | GI50 [4] [nM] | GI50 [5] [nM] | IC50 [6] [nM] |
| --- | --- | --- | --- | --- | --- | --- |
| CCc1cc(Nc2ncc(Br)c(Nc3ccc(-c4cnn(C)n4)c(F)c3P(C)(C)=O)n2)c(OC)cc1N1CCC(N2CCN(C)CC2)CC1 [Compound K-007, (6-((5-Bromo-2-((5-ethyl-2-methoxy-4-(4-(4-methylpiperazin-1-yl)piperidin-1-yl)phenyl)amino)pyrimidin-4-yl)amino)-2-fluoro-3-(2-methyl-2H-1,2,3-triazol-4-yl)phenyl)dimethylphosphine oxide] | 0.1 | 5.2 | 54.9 | 3.2 | 130 | 1440 |
| COc1cc(Nc2ncc(Br)c(Nc3ccc(-c4cnn(C)n4)c(F)c3P(C)(C)=O)n2)c(C)cc1N1CCOCC1 [Compound K-025, (6-((5-Bromo-2-((5-methoxy-2-methyl-4-morpholinophenyl)amino)pyrimidin-4-yl)amino)-2-fluoro-3-(2-methyl-2H-1,2,3-triazol-4-yl)phenyl)dimethylphosphine oxide] | 0.23 | 39 | 69 | 12.6 | 220 | > 10000 |
| CCc1cc(Nc2ncc(Br)c(Nc3ccc(-c4cnc(N(C)C)cn4)cc3P(C)(C)=O)n2)c(OC)cc1N1CCC(N2CCN(C)CC2)CC1 [Compound 35, (2-((5-Bromo-2-((5-ethyl-2-methoxy-4-(4-(4-methylpiperazin-1-yl)piperidin-1-yl)phenyl)amino)pyrimidin-4-yl)amino)-5-(5-(dimethylamino)pyrazin-2-yl)phenyl)dimethylphosphine oxide] | 0.5 | 21.5 | 238 | 3.1 | 259 | > 10000 |
| CCc1cc(Nc2ncc(Br)c(Nc3ccc(-c4cnn(C)c4)c(C)c3P(C)(C)=O)n2)c(OC)cc1N1CCC(N2CCN(C)CC2)CC1 [Compound K-046, (6-((5-Bromo-2-((5-ethyl-2-methoxy-4-(4-(4-methylpiperazin-1-yl)piperidin-1-yl)phenyl)amino)pyrimidin-4-yl)amino)-2-methyl-3-(1-methyl-1H-pyrazol-4-yl)phenyl)dimethylphosphine oxide] | 0.5 | 9.9 | 28.7 | 7.6 | 34.8 | 306 |
| COc1cc(N2CCC(N3CCN(C)CC3)CC2)c(C)cc1Nc1ncc(Br)c(Nc2ccc(-c3cnn(C)n3)cc2P(C)(C)=O)n1 [Compound K-008, (2-((5-Bromo-2-((2-methoxy-5-methyl-4-(4-(4-methylpiperazin-1-yl)piperidin-1-yl)phenyl)amino)pyrimidin-4-yl)amino)-5-(2-methyl-2H-1,2,3-triazol-4-yl)phenyl)dimethylphosphine oxide] | 0.24 | 15 | 120 | 4.8 | 169 | 415 |
| CCc1cc(Nc2ncc(Br)c(Nc3ccc(-c4nn(C)c5ncccc45)cc3P(C)(C)=O)n2)c(OC)cc1N1CCC(N(C)C)CC1 [Compound K-079, (2-((5-Bromo-2-((4-(4-(dimethylamino)piperidin-1-yl)-5-ethyl-2-methoxyphenyl)amino)pyrimidine-4-yl)amino)-5-(1-methyl-1H-pyrazolo[3,4-b]pyridin-3-yl)phenyl)dimethylphosphine oxide] | 0.5 | 149 | 997 | 50.9 | 432 | 7650 |
| COc1cc(Nc2ncc(Br)c(Nc3ccc(-c4cnn(C)c4)cc3P(C)(C)=O)n2)c(C)cc1N1CCOCC1 [Compound K-030, (2-((5-Bromo-2-((5-methoxy-2-methyl-4-morpholinophenyl)amino)pyrimidin-4-yl)amino)-5-(1-methyl-1H-pyrazol-4-yl)phenyl)dimethylphosphine oxide] | 0.2 | 7.8 | 21.5 | 3.6 | 132 | 615 |
